Assay results published in patent US20020045606A1, “Esters of vitamin D3 and uses thereof” (priority 1999, published 2002).

What follows are compounds tested on UMR 106 cells (assay: Metabolism of 1α,25(OH)2-16-ene-D3 analogs into less polar fatty acid ester metabolites in bone cells). Conditions: 10 μM analog incubated 24 h in UMR 106 cells; HPLC (FIG. 1).
Type: in vitro ADME, rat
Description: As described herein, various analogs of 1α,25(OH)2-D3, such as 1α,25(OH)2-16-ene-D3 analogs are metabolized into less polar metabolites in the rat osteosarcoma cell line UMR 106. UMR 106 cells were cultured in an humidified atmosphere at 37° C. in 95% air and 5% CO2. MacCoy's culture medium, containing 10% fetal calf serum (FCS), antibiotics (100 IU/mL penicillin and 100 μg/mL streptomycin) and […], was used. Cells became confluent ten days after seeding, and were then incubated with analog. Samples (structures shown in Table 2) of 1α,25(OH)2-16-ene-D3, 1α,25(OH)2-16-ene-3-epi-D3, 1α,25(OH)2-16-ene-20-epi-D3, 1α,25(OH)2-16-ene-20-epi-3-epi-D3, and 1α,25(OH)2-16-ene-23-yne-D3 were dissolved in ethanol to a final concentration of 10 μM and incubated in 50 mL for 24 h. Each analog was incubated in three culture bottles. Incubation was stopped by adding 10 mL methanol to each culture bottle. Culture bottles were stored at −20° C.
Lipid extraction was initiated by first adding two volumes of methanol to each culture bottle from Example I. The protein precipitate was separated from the supernatant by centrifugation at 3000 rpm at 4° C. for 15 min. The supernatant was mixed with four volumes of dichloromethane in a separatory funnel. The lower organic phase was collected and dried under nitrogen gas at 50° C. After reconstitution in 10% isopropanol/hexane, the lipid extract was analyzed by high-performance liquid chromatography (HPLC).
HPLC was performed with a Waters System Controller (Model 600E) equipped with a photodiode array detector (Model PDA 990) to monitor UV absorption at 265 nm. A Zorbax SIL 9.4×250 mm column (DuPont, Wilmington, Del.) was used for all straight phase systems. The corresponding analog was added to each lipid extract and the solutions were then subjected to a straight phase HPLC system using 10% isopropanol/hexane at a flow rate of 2 mL/min. (HPLC system I). Fractions were collected from 0 min. to 12 min. These fractions were further subjected to a straight phase HPLC system using 2% isopropanol/hexane at a flow rate of 2 mL/min. (HPLC system II).

SMILES	amount of less polar fatty acid ester metabolites produced
C=C1/C(=C\C=C2/CCC[C@]3(C)C([C@H](C)CCCC(C)(C)O)=CCC23)C[C@H](O)C[C@@H]1O (stereo partly drawn) [1α,25(OH)2-16-ene-3-epi-D3]	slightly greater amounts of one of the less polar metabolites
C=C1/C(=C\C=C2/CCC[C@]3(C)C([C@@H](C)CCCC(C)(C)O)=CCC23)C[C@H](O)C[C@@H]1O (stereo partly drawn) [1α,25(OH)2-16-ene-20-epi-3-epi-D3]	enhanced even further
C=C1/C(=C\C=C2/CCC[C@]3(C)C([C@@H](C)CCCC(C)(C)O)=CCC23)C[C@@H](O)C[C@@H]1O (stereo partly drawn) [1α,25(OH)2-16-ene-20-epi-D3]	a greater increase in the amount of the less polar fatty acid ester metabolites
C=C1/C(=C\C=C2/CCC[C@]3(C)C([C@@H](C)CC#CC(C)(C)O)=CCC23)C[C@@H](O)C[C@@H]1O (stereo partly drawn) [1α,25(OH)2-16-ene-23-yne-D3]	reduced
C=C1/C(=C\C=C2/CCC[C@]3(C)C([C@H](C)CCCC(C)(C)O)=CCC23)C[C@@H](O)C[C@@H]1O (stereo partly drawn) [1α,25(OH)2-16-ene-D3]	production of the less polar fatty acid ester metabolites

What follows are compounds tested on UMR 106 cells (assay: Distribution of esters and substrates between cells and media, UMR 106). Conditions: lipid extraction from media and cells separately, HPLC system I.
Type: in vitro ADME, rat
Description: Peaks H2-A and H3-A were obtained and purified as described in Example II. In addition, UMR 106 cells were incubated with 1α,25(OH)2-16-ene-20-epi-D3 and 1α,25(OH)2-16-ene-20-epi-3-epi-D3, as described in Example I.
The lipid extraction was carried out from media and cells separately and together, as described in Example II. HPLC was performed with a Waters System Controller (Model 600E) equipped with a photodiode array detector (Model PDA 990) to monitor UV absorption at 265 nm. A Zorbax SIL 9.4×250 mm column (DuPont, Wilmington, Del.) was used for all straight phase systems. Each lipid extract was analyzed using HPLC system I.

SMILES	distribution between cells and media
C=C1/C(=C\C=C2/CCC[C@]3(C)C([C@@H](C)CCCC(C)(C)O)=CCC23)C[C@H](O)C[C@@H]1O (stereo partly drawn) [1α,25(OH)2-16-ene-20-epi-3-epi-D3]	distributed primarily in the media
C=C1/C(=C\C=C2/CCC[C@]3(C)C([C@@H](C)CCCC(C)(C)O)=CCC23)C[C@@H](O)C[C@@H]1O (stereo partly drawn) [1α,25(OH)2-16-ene-20-epi-D3]	distributed primarily in the media
